pKi: −log10 of the molar value.
How the values were obtained:
[1] = Serum stability of prodrugs, human serum; format: in vitro ADME; conditions: theoretical initial conc. 20 ug/mL; for Measured Initial Conc. in Serum: 37 degrees; for Conc. at t = 1 hr: prodrug
[2] = Serum stability of prodrugs, rat serum; format: in vitro ADME; conditions: for Measured Initial Conc. in Serum: 37 degrees; for Conc. at t = 1 hr / Conc. at t = 3 hr / Conc. at t = 2 h / Conc. at t = 4 h: prodrug
Method: (§1) Prodrug strategy is one of the ways to achieve or increase oral bioavailability for therapeutic drugs. […] After a prodrug molecule is absorbed into systemic circulation, it should be hydrolyzed in the blood in order to release the active form. Hydrolysis of several prodrugs by rat and human serum were evaluated.
(§2) For all stability experiments the test compounds were treated with rat or human serum in Eppendorf tubes. Typically, 992 μl of serum was prewarmed at 37 degrees for 2 minutes and then 8 μl of a compound (at 5 mg/ml, 125×) was added to it to get a final concentration of […] and immediately mixed. Alternatively, serum stability might be tested at 1 mg/ml. […] After vortexing for 30 seconds, the tube was centrifuged in a microcentrifuge for 10 minutes at 15K rpm. Next, 100 μl of the supernatant was combined with 600 μl of water and injected on LC-MS using 0.1% formic acid in water for mobile phase A and 0.1% formic acid in methanol for mobile phase B on an ACE 5 C18 2.1×100 mm column with a 10 μL injection. The flow rate and gradient were adjusted as needed to give the desired resolution and run time. The pH of the mobile phase was adjusted if needed to improve the chromatography.
(§3) The time course of both the disappearance of a prodrug and the appearance of the active form of that prodrug is presented in Table 6 and Table 7. The active metabolites for all of the listed prodrugs are corresponding parent drugs

[3] = Serum stability of prodrugs, human serum; format: in vitro ADME; conditions: for Conc. at t = 3 hr / Measured Initial Conc. in Serum / Conc. at t = 2 h / Conc. at t = 4 h: human serum; for Conc. at t = 3 hr / Conc. at t = 2 h / Conc. at t = 4 h: prodrug; for Conc. at t = 3 hr: theoretical initial conc. 20 ug/mL; for Measured Initial Conc. in Serum: 37 degrees; for Measured Initial Conc. in Serum / Conc. at t = 2 h / Conc. at t = 4 h: theoretical initial conc. 40 ug/mL
Method: as §1, §2, §3

[4] = test system: KP1009 (CTX-M-15); assay: Tigemonam potentiation (MPC@4), KP1009; format: cell-based; conditions: BLI with tigemonam at 4 μg/mL
[5] = molecular target: OXA-48 (Klebsiella pneumoniae, UniProt Q6XEC0); assay: Ki, nitrocefin cleavage by purified enzyme, OXA-48; format: biochemical; conditions: nitrocefin reporter substrate; read-out: Ki (OXA-48, NCF)
Method: (§4) Purified enzymes were mixed with various concentrations of inhibitors in reaction buffer and incubated for 10 min at room temperature. Nitrocefin was added and substrate cleavage profiles were recorded at 490 nm every 10 sec for 10 min.

[6] = test system: EC1010 (CMY-6); assay: Tigemonam potentiation (MPC@4), EC1010; format: cell-based; conditions: BLI with tigemonam at 4 μg/mL
[7] = test system: ECL1002; assay: Aztreonam potentiation (MPC@4), ECL1002; format: cell-based; conditions: BLI with aztreonam at 4 μg/mL
[8] = molecular target: SHV-12 (Klebsiella pneumoniae, UniProt P0AD64, E235K/G234S/L31Q); assay: Ki, nitrocefin cleavage by purified enzyme, SHV-12; format: biochemical; conditions: nitrocefin reporter substrate; read-out: Ki (SHV-12, NCF)
Method: as §4

[9] = test system: ECL1002; assay: Tigemonam potentiation (MPC@4), ECL1002; format: cell-based; conditions: BLI with tigemonam at 4 μg/mL
[10] = test system: KP1010 (SHV-12); assay: Tigemonam potentiation (MPC@4), KP1010; format: cell-based
[11] = test system: ec308 (SHV-5); assay: Tigemonam potentiation (MPC@4), ec308; format: cell-based
[12] = test system: ec302 (TEM-10); assay: Aztreonam potentiation (MPC@4), ec302; format: cell-based; conditions: BLI with aztreonam at 4 μg/mL
[13] = molecular target: Pa AmpC (Pseudomonas aeruginosa, UniProt P24735); assay: Ki, nitrocefin cleavage by purified enzyme, Pa AmpC; format: biochemical; conditions: nitrocefin reporter substrate; read-out: Ki (Pa AmpC, NCF)
Method: Ki values of inhibition of purified class A, C and D enzymes were determined spectrophotometrically using nitrocefin as reporter substrate. Purified enzymes were mixed with various concentrations of inhibitors in reaction buffer and incubated for 10 min at room temperature. Nitrocefin was added and substrate cleavage profiles were recorded at 490 nm every 10 sec for 10 min. These experiments confirmed that the described compounds are inhibitors with a broad-spectrum of activity towards various β-lactamases.

[14] = molecular target: P99 (Enterobacter cloacae, UniProt P05364); assay: Ki, nitrocefin cleavage by purified enzyme, P99; format: biochemical; conditions: nitrocefin reporter substrate; read-out: Ki (P99, NCF)
Method: as §4

[15] = molecular target: KPC-2 (Klebsiella pneumoniae, UniProt Q9F663); assay: Ki, nitrocefin cleavage by purified enzyme, KPC-2; format: biochemical; conditions: nitrocefin reporter substrate; read-out: Ki (KPC-2, NCF)
Method: as §4

[16] = molecular target: CTX-M-14 (Escherichia coli, UniProt Q9L5C7); assay: Ki, nitrocefin cleavage by purified enzyme, CTX-M-14; format: biochemical; conditions: nitrocefin reporter substrate; read-out: Ki (CTX-M-14, NCF)
Method: as §4

[17] = test system: KP1086 (OXA-48); assay: Biapenem potentiation (MPC@1), KP1086; conditions: BLI with biapenem at 1 μg/mL
[18] = test system: EC1010 (CMY-6); assay: organism not typed; format: cell-based
[19] = test system: KP1004 (KPC-2); assay: Biapenem potentiation (MPC@1), KP1004; conditions: BLI with biapenem at 1 μg/mL
[20] = test system: KP1005 (CTX-M-14); assay: Tigemonam potentiation (MPC@4), KP1005; format: cell-based; conditions: BLI with tigemonam at 4 μg/mL
[21] = test system: ec302 (TEM-10); assay: Tigemonam potentiation (MPC@4), ec302; format: cell-based
[22] = theoretical initial conc. 20 ug/mL
[23] = theoretical initial conc. 40 ug/mL

Sequence of P99 (P05364 21-381): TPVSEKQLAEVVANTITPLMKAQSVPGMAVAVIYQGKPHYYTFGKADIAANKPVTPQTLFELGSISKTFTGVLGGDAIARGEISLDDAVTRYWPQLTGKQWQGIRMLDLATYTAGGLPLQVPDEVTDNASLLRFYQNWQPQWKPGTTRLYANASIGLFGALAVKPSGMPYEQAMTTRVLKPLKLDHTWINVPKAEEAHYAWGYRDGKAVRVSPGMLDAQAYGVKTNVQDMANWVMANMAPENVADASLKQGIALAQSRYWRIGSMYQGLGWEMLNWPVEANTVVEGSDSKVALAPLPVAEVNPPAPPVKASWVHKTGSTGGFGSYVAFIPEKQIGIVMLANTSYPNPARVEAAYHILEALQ
Sequence of OXA-48 (Q6XEC0 23-265, looked up, species assumed): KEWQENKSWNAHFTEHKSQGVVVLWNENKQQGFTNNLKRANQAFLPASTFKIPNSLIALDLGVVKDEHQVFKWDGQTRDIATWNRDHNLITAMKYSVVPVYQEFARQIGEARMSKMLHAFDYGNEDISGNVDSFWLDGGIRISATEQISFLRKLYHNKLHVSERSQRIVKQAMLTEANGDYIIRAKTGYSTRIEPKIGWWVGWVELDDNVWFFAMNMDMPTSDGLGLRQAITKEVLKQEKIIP
Sequence of SHV-12 (P0AD64 22-286 L31Q/G234S/E235K): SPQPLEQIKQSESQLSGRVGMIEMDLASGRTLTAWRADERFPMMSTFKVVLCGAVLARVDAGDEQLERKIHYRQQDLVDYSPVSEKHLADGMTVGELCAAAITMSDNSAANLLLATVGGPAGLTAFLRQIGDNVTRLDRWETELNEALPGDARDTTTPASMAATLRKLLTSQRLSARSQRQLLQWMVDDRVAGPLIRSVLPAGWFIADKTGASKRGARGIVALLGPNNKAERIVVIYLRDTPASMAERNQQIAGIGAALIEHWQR
Sequence of CTX-M-14 (Q9L5C7 29-291): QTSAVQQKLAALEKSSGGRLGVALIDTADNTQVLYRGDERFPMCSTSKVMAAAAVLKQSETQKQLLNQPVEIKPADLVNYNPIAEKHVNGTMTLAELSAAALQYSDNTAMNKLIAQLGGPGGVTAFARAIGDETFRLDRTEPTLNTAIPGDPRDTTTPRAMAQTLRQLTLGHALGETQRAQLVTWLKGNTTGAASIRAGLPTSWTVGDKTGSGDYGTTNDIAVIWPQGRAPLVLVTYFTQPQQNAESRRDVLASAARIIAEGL
Sequence of KPC-2 (Q9F663 25-293, looked up, species assumed): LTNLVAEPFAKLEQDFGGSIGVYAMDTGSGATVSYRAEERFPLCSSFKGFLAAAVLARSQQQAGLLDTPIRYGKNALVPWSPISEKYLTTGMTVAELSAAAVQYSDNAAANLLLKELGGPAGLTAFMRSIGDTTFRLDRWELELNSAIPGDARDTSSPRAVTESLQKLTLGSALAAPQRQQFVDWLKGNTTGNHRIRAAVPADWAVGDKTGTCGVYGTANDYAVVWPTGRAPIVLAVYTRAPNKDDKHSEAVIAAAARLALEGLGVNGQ
Sequence of Pa AmpC (P24735 27-397): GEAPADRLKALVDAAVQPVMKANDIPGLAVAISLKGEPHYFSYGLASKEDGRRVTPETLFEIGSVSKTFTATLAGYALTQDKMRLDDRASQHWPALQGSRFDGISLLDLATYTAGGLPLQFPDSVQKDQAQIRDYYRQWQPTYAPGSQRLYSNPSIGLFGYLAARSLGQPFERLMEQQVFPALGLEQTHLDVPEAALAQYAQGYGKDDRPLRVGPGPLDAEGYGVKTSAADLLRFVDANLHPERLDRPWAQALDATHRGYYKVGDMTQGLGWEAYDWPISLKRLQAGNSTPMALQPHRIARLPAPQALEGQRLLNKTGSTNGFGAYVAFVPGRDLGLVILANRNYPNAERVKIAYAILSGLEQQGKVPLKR

Measured Initial Conc. in Serum [1] [µg/mL] | Conc. at t = 1 hr [1] [ng/mL] | Measured Initial Conc. in Serum [2, 22] [µg/mL] | Conc. at t = 1 hr [2, 22] [ng/mL] | Conc. at t = 3 hr [2, 22] [ng/mL] | Conc. at t = 3 hr [3] [ng/mL] | SMILES | also measured
19.1 | 6220 | 18.7 | 8290 | 410 | 1010 | CSCC(=O)N[C@H]1Cc2cc(Cl)c(F)c(C(=O)OCOC(=O)C(C)C)c2OB1O [Compound 46, 2-methylpropanoyloxymethyl(3R)-6-chloro-7-fluoro-2-hydroxy-3-[(2-methylsulfanylacetyl)amino]-3,4-dihydro-1,2-benzoxaborinine-8-carboxylate] | –
24.4 | 20800 | 20.6 | 400 | 0 | 20900 | CCOC(=O)OCOC(=O)c1c(OC)ccc2c1OB(O)[C@@H](NC(=O)CSC)C2 [Compound 41, ethoxycarbonyloxymethyl(3R)-2-hydroxy-7-methoxy-3-[(2-methylsulfanylacetyl)amino]-3,4-dihydro-1,2-benzoxaborinine-8-carboxylate] | –
18.6 | 18100 | 18.4 | 16000 | 5210 | 12500 | CSCC(=O)N[C@H]1Cc2ccc(SC)c(C(=O)OCOC(=O)C(C)C)c2OB1O [Compound 44, 2-methylpropanoyloxymethyl(3R)-2-hydroxy-7-methylsulfanyl-3-[(2-methylsulfanylacetyl)amino]-3,4-dihydro-1,2-benzoxaborinine-8-carboxylate] | –
23.4 | 19500 | 24.2 | 14100 | 5580 | 16500 | COc1ccc2c(c1C(=O)OCOC(=O)C(C)C)OB(O)[C@@H](NC(=O)CSC)C2 [Compound 42, 2-methylpropanoyloxymethyl(3R)-2-hydroxy-7-methoxy-3-[(2-methylsulfanylacetyl)amino]-3,4-dihydro-1,2-benzoxaborinine-8-carboxylate] | –

The remaining lines, values behind:

SMILES | Measured Initial Conc. in Serum [1] [µg/mL] | Conc. at t = 1 hr [1] [ng/mL] | Measured Initial Conc. in Serum [2, 22] [µg/mL] | Conc. at t = 1 hr [2, 22] [ng/mL] | Conc. at t = 3 hr [2, 22] [ng/mL] | Conc. at t = 3 hr [3] [ng/mL] | also measured
CSCC(=O)N[C@H]1Cc2ccc(F)c(C(=O)OCOC(=O)C(C)(C)C)c2OB1O [Compound 18, (R)-pivaloyloxymethyl 7-fluoro-2-hydroxy-3-(2-(methylthio)acetamido)-3,4-dihydro-2H-benzo[e][1,2]oxaborinine-8-carboxylate] | 16.3 | 11600 | 14.6 | 9390 | 3290 | 6270 | –
CSCC(=O)N[C@H]1Cc2ccc(F)c(C(=O)OCOC(=O)C(C)C)c2OB1O [Compound 17, (R)-isobutyryloxymethyl 7-fluoro-2-hydroxy-3-(2-(methylthio)acetamido)-3,4-dihydro-2H-benzo[e][1,2]oxaborinine-8-carboxylate] | 9.74 | 1180 | 9.22 | 1350 | – | 160 | –
CSCC(=O)N[C@H]1Cc2ccc(F)c(C(=O)OCOC(=O)OC(C)C)c2OB1O [Compound 15, (R)-(isopropoxycarbonyloxy)methyl 7-fluoro-2-hydroxy-3-(2-(methylthio)acetamido)-3,4-dihydro-2H-benzo[e][1,2]oxaborinine-8-carboxylate] | – | – | – | – | – | – | Measured Initial Conc. in Serum [2, 23]: 30.6 µg/mL; Conc. at t = 2 h [2, 23]: BQL; Conc. at t = 4 h [2, 23]: BQL; Measured Initial Conc. in Serum [3]: 33.2 µg/mL; Conc. at t = 2 h [3]: 12800 ng/mL; Conc. at t = 4 h [3]: 5320 ng/mL
CCC(=O)OCOC(=O)c1c(F)ccc2c1OB(O)[C@@H](NC(=O)CSC)C2 [Compound 16, (R)-propionyloxymethyl 7-fluoro-2-hydroxy-3-(2-(methylthio)acetamido)-3,4-dihydro-2H-benzo[e][1,2]oxaborinine-8-carboxylate] | 20.7 | 2290 | 20.2 | 400 | 0 | 270 | –
COc1ccc2c(c1C(=O)O)OB(O)[C@@H](NC(=O)CC(N)=O)C2 [Compound 27, (R)-3-(3-amino-3-oxopropanamido)-2-hydroxy-7-methoxy-3,4-dihydro-2H-benzo[e][1,2]oxaborinine-8-carboxylic acid] | – | – | – | – | – | – | TIG MPC4 CTX-M-15 KP1009 [4]: X (MIC of less than 1 μg/mL); pKi [5]: > 9.00; TIG MPC4 CMY-6 EC1010 [6]: X (MIC of less than 1 μg/mL); AZT MPC4 ECL1002 [7]: Y (MIC of 1 μg/mL to 10 μg/mL); pKi [8]: > 9.00; TIG MPC4 ECL1002 [9]: X (MIC of less than 1 μg/mL); TIG MPC4 SHV-12 KP1010 [10]: X (key: X: MIC of less than 1 μg/mL; Y: MIC of 1 μg/mL to 10 μg/mL; Z: MIC of greater than 10 μg/mL); TIG MPC4 SHV-5 ec308 [11]: X (key: X: MIC of less than 1 μg/mL; Y: MIC of 1 μg/mL to 10 μg/mL; Z: MIC of greater than 10 μg/mL); AZT MPC4 TEM-10 ec302 [12]: Y (MIC of 1 μg/mL to 10 μg/mL); pKi [13]: < 8.00; pKi [14]: < 8.00; pKi [15]: < 8.00; pKi [16]: > 9.00; BPM MPC1 OXA-48 KP1086 [17]: Y (MIC of 1 μg/mL to 10 μg/mL); AZT MPC4 CMY-6 EC1010 [18]: Y (key: X: MIC of less than 1 ng/mL; Y: MIC of 1 μg/mL to 10 μg/mL; Z: MIC of greater than 10 μg/mL); BPM MPC1 KP1004 KPC-2 [19]: X (MIC of less than 1 μg/mL); TIG MPC4 CTX-M-14 KP1005 [20]: Y (MIC of 1 μg/mL to 10 μg/mL); TIG MPC4 TEM-10 ec302 [21]: Z (key: X: MIC of less than 1 ng/mL; Y: MIC of 1 μg/mL to 10 μg/mL; Z: MIC of greater than 10 μg/mL)
CSCC(=O)N[C@H]1Cc2ccc(F)c(C(=O)OCOC(C)=O)c2OB1O [Compound 14, (R)-acetoxymethyl 7-fluoro-2-hydroxy-3-(2-(methylthio)acetamido)-3,4-dihydro-2H-benzo[e][1,2]oxaborinine-8-carboxylate] | – | – | – | – | – | – | Measured Initial Conc. in Serum [2, 23]: 39.6 µg/mL; Conc. at t = 2 h [2, 23]: BQL; Conc. at t = 4 h [2, 23]: BQL; Measured Initial Conc. in Serum [3]: 36.8 µg/mL; Conc. at t = 2 h [3]: 5000 ng/mL; Conc. at t = 4 h [3]: 1130 ng/mL
CCCC(=O)OCOC(=O)c1c(F)ccc2c1OB(O)[C@@H](NC(=O)CSC)C2 [Compound 13, (R)-butyryloxymethyl 7-fluoro-2-hydroxy-3-(2-(methylthio)acetamido)-3,4-dihydro-2H-benzo[e][1,2]oxaborinine-8-carboxylate] | – | – | – | – | – | – | Measured Initial Conc. in Serum [2, 23]: 28.1 µg/mL; Conc. at t = 2 h [2, 23]: 9.81 (t = 2 h) ug/mL; Conc. at t = 4 h [2, 23]: BQL; Measured Initial Conc. in Serum [3]: 30.6 µg/mL; Conc. at t = 2 h [3]: 1560 ng/mL; Conc. at t = 4 h [3]: BQL; conversion of prodrug to active metabolite ([3]; serum (Tables 6 and 7), 4 hour experiment): completely converted to active metabolite
